Measured values from the supplement of paper PMC5762512.

Experiments:
Assay in all cases: IC50 cell viability (Alamar Blue, 96 h)
PER-624 = tested on: PER-624
Description: (§1)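 Cells in log-phase growth were seeded in 96-well plates and treated with drug for 96 h at 37°C using 8-point serial dilutions from 0.0025 to 10 µM. Viability was read by Alamar Blue fluorescence after 6 h and normalised to positive and vehicle (DMSO) controls. IC50 values were fitted in ActivityBase; the value given is the mean of two independent experiments.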

RPMI2650 = tested on: RPMI2650
Description: as §1

PER-535 = tested on: PER-535
Description: as §1

14169 = tested on: 14169
Description: as §1

HCC2429 = tested on: HCC2429
Description: as §1

WI-38 = tested on: WI-38
Description: as §1

HS-27 = tested on: HS-27
Description: as §1

CAKI-1 = tested on: CAKI-1
Description: as §1

PER-712 = tested on: PER-712
Description: as §1

A549 = tested on: A549
Description: as §1

11060 = tested on: 11060
Description: as §1

TC797 = tested on: TC797
Description: as §1

PER-536 = tested on: PER-536
Description: as §1

PER-704 = tested on: PER-704
Description: as §1

TY82 = tested on: TY82
Description: as §1

PER-891 = tested on: PER-891
Description: as §1

8645 = tested on: 8645
Description: as §1

PER-403 = tested on: PER-403
Description: as §1

10326 = tested on: 10326
Description: as §1

P896-CL = tested on: P896-CL
Description: as §1

Row | IC50 cell viability (HCC2429) [nM] | IC50 cell viability (A549) [nM] | SMILES | IC50 cell viability (PER-624) [nM] | IC50 cell viability (RPMI2650) [nM] | IC50 cell viability (PER-535) [nM] | IC50 cell viability 14169 [nM] | IC50 cell viability (WI-38) [nM] | IC50 cell viability (HS-27) [nM] | IC50 cell viability (CAKI-1) [nM] | IC50 cell viability (PER-712) [nM] | IC50 cell viability 11060 [nM] | IC50 cell viability (TC797) [nM] | IC50 cell viability (PER-536) [nM] | IC50 cell viability (PER-704) [nM] | IC50 cell viability (TY82) [nM] | IC50 cell viability (PER-891) [nM] | IC50 cell viability 8645 [nM] | IC50 cell viability (PER-403) [nM] | IC50 cell viability 10326 [nM] | IC50 cell viability (P896-CL) [nM]
1 | < 2.5 | 6.14 | CC[C@]1(O)C[C@H]2CN(CCc3c([nH]c4ccccc34)[C@@](C(=O)OC)(c3cc4c(cc3OC)N(C=O)[C@H]3[C@@](O)(C(=O)OC)[C@H](OC(C)=O)[C@]5(CC)C=CCN6CC[C@]43[C@@H]65)C2)C1 [Vincristine] | 7.58 | > 10000 | 6.92 | < 2.5 | 8.35 | 7.19 | 5020 | 8.68 | < 2.5 | 5.35 | 20.7 | 6.18 | 8.25 | 27.5 | < 2.5 | < 2.5 | < 2.5 | 8.77
2 | 1170 | 2070 | O=C(CCCCCCC(=O)Nc1ccccc1)NO [Vorinostat] | 1540 | 5840 | 2440 | 1220 | 4450 | 4290 | 4100 | 3450 | 2740 | 7210 | > 10000 | 2140 | 2240 | > 10000 | 561 | 732 | 514 | 3190
